*1 amine or outer side, *2 acyl side, *3 side chain or, on linkers, in order; H or OH if unused. Where a SMILES comes first, the peptide text is derived from it. Side-chain parts run from the residue outwards. [ ]: non-standard residue; d: D form. The star is where a group is joined. C20 diacid = O=C(O)CCCCCCCCCCCCCCCCCCC(=O)*; C18 diacid = O=C(O)CCCCCCCCCCCCCCCCC(=O)*; αMePhe(2-F) = C[C@](N)(Cc1ccccc1F)C(=O)O; γGlu = O=C(O)[C@H](CCC(=O)[*:2])N[*:1]; 4Pal = N[C@@H](Cc1ccncc1)C(=O)O; αMeL = CC(C)C[C@](C)(N)C(=O)O; Orn = NCCC[C@H](N)C(=O)O; AEEA = NCCOCCOCC(=O)O; Aib = CC(C)(N)C(=O)O
Experiments:
[1] = molecular target: T1, human GIPR (Homo sapiens, UniProt P48546); assay: [125I]-GIP binding, SPA with WGA beads, 0.1% bacitracin; details: geometric mean, read-out: hGIPR Ki
T1 construct: expressed in transfected cells; crude membranes
T1 sequence (P48546 22-466): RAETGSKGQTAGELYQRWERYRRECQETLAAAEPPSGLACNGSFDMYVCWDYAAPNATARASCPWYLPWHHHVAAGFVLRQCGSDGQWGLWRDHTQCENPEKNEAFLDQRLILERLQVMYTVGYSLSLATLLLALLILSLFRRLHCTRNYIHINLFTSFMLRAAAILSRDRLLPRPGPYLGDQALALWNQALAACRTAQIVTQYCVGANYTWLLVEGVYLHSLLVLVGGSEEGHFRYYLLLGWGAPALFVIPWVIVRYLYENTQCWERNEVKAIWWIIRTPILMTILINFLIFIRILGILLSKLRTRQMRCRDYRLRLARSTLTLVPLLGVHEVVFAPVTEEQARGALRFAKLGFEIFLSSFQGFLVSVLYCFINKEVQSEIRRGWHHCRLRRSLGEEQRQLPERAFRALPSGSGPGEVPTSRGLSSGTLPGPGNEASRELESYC
In short: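 Ki values are geometric means (SEM, n independent days), derived from four-parameter nonlinear regression of IC50. Membranes came from hGIPR-expressing CHO cells.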

[2] = molecular target: T2, human GLP-1R (Homo sapiens, UniProt P43220); assay: [125I]-GLP-1 binding, SPA with WGA beads, 0.1% bacitracin; details: geometric mean, read-out: hGLP1R Ki
T2 construct: expressed in transfected cells; crude membranes
In short: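 Binding buffer was 25 mM HEPES pH 7.4 with 2.5 mM CaCl2, 1 mM MgCl2, 0.1% (w/v) bacitracin, 0.003% Tween-20 and EDTA-free protease inhibitors. Four-parameter regression gave IC50, converted to Ki (geometric mean, SEM, n independent days).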

T2 sequence (P43220 24-463): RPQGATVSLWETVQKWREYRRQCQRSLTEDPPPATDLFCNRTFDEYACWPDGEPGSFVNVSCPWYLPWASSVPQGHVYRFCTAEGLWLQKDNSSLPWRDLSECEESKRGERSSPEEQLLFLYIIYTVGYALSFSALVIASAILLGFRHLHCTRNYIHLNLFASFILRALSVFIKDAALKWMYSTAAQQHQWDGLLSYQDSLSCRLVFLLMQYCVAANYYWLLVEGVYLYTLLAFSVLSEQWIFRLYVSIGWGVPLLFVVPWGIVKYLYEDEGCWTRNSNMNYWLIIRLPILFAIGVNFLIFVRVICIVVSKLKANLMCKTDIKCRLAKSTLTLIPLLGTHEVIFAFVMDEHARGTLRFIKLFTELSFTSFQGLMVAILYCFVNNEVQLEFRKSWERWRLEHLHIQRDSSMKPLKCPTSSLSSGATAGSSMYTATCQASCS

Row | Compound | Ki [1] [nM] | Ki [2] [nM]
1 | CC[C@H](C)[C@H](NC(=O)[C@H](CCCN)NC(=O)[C@H](CC(=O)O)NC(=O)[C@H](CC(C)C)NC(=O)[C@](C)(CC(C)C)NC(=O)[C@@H](NC(=O)[C@H](CO)NC(=O)[C@H](Cc1ccc(O)cc1)NC(=O)[C@H](CC(=O)O)NC(=O)[C@H](CO)NC(=O)[C@@H](NC(=O)[C@H](Cc1ccccc1)NC(=O)[C@@H](NC(=O)CNC(=O)[C@H](CCC(=O)O)NC(=O)C(C)(C)NC(=O)[C@@H](N)Cc1ccc(O)cc1)[C@@H](C)O)[C@@H](C)CC)[C@@H](C)CC)C(=O)N[C@@H](Cc1c[nH]cn1)C(=O)N[C@@H](CCC(N)=O)C(=O)NC(C)(C)C(=O)N[C@@H](CC(=O)O)C(=O)N[C@@H](Cc1ccccc1)C(=O)N[C@H](C(=O)N[C@@H](CCC(=O)O)C(=O)N[C@@H](Cc1ccncc1)C(=O)N[C@@H](CCCCNC(=O)COCCOCCNC(=O)COCCOCCNC(=O)CC[C@H](NC(=O)CCCCCCCCCCCCCCCCC(=O)O)C(=O)O)C(=O)N[C@@H](CC(C)C)C(=O)N[C@@H](CCC(=O)O)C(=O)NCC(=O)NCC(=O)N1CCC[C@H]1C(=O)N[C@@H](CO)C(=O)N[C@@H](CO)C(=O)NCC(=O)N[C@@H](C)C(=O)N1CCC[C@H]1C(=O)N1CCC[C@H]1C(=O)N1CCC[C@H]1C(=O)N[C@@H](CO)C(N)=O)C(C)C [Example 111] (H-Y[Aib]EGTFISDYSI[αMeL]LD[Orn]IHQ[Aib]DFVE[4Pal]K([AEEA-AEEA-γGlu-C18 diacid])LEGGPSSGAPPPS-NH2) | 0.0871 | > 908
2 | CC[C@H](C)[C@H](NC(=O)[C@H](CO)NC(=O)[C@H](Cc1ccc(O)cc1)NC(=O)[C@H](CC(=O)O)NC(=O)[C@H](CO)NC(=O)[C@@H](NC(=O)[C@](C)(Cc1ccccc1F)NC(=O)[C@@H](NC(=O)CNC(=O)[C@H](CCC(=O)O)NC(=O)C(C)(C)NC(=O)[C@@H](N)Cc1ccc(O)cc1)[C@@H](C)O)[C@@H](C)CC)C(=O)N[C@@H](C)C(=O)N[C@@H](CC(C)C)C(=O)N[C@@H](CC(=O)O)C(=O)N[C@@H](CCCCN)C(=O)N[C@H](C(=O)N[C@@H](Cc1c[nH]cn1)C(=O)N[C@@H](CCC(N)=O)C(=O)NC(C)(C)C(=O)N[C@@H](CC(=O)O)C(=O)N[C@@H](Cc1ccccc1)C(=O)N[C@H](C(=O)N[C@@H](CCC(=O)O)C(=O)N[C@@H](Cc1ccncc1)C(=O)N[C@@H](CCCCNC(=O)COCCOCCNC(=O)COCCOCCNC(=O)CC[C@H](NC(=O)CCCCCCCCCCCCCCCCCCC(=O)O)C(=O)O)C(=O)N[C@@H](CC(C)C)C(=O)N[C@@H](CCC(=O)O)C(=O)NCC(=O)NCC(=O)N1CCC[C@H]1C(=O)N[C@@H](CO)C(=O)N[C@@H](CO)C(=O)NCC(=O)N[C@@H](C)C(=O)N1CCC[C@H]1C(=O)N1CCC[C@H]1C(=O)N1CCC[C@H]1C(=O)N[C@@H](CO)C(N)=O)C(C)C)[C@@H](C)CC [Example 112] (H-Y[Aib]EGT[αMePhe(2-F)]ISDYSIALDKIHQ[Aib]DFVE[4Pal]K([AEEA-AEEA-γGlu-C20 diacid])LEGGPSSGAPPPS-NH2) | 0.0742 | > 908
3 | CC[C@H](C)[C@H](NC(=O)[C@H](CO)NC(=O)[C@H](Cc1ccc(O)cc1)NC(=O)[C@H](CC(=O)O)NC(=O)[C@H](CO)NC(=O)[C@@H](NC(=O)[C@](C)(Cc1ccccc1F)NC(=O)[C@@H](NC(=O)CNC(=O)[C@H](CCC(=O)O)NC(=O)C(C)(C)NC(=O)[C@@H](N)Cc1ccc(O)cc1)[C@@H](C)O)[C@@H](C)CC)C(=O)N[C@@H](C)C(=O)N[C@@H](CC(C)C)C(=O)N[C@@H](CC(=O)O)C(=O)N[C@@H](CCCCN)C(=O)N[C@H](C(=O)N[C@@H](Cc1c[nH]cn1)C(=O)N[C@@H](CCC(N)=O)C(=O)NC(C)(C)C(=O)N[C@@H](CC(=O)O)C(=O)N[C@@H](Cc1ccccc1)C(=O)N[C@H](C(=O)N[C@@H](CCC(=O)O)C(=O)N[C@@H](Cc1ccncc1)C(=O)N[C@@H](CCCCNC(=O)COCCOCCNC(=O)COCCOCCNC(=O)CC[C@H](NC(=O)CCCCCCCCCCCCCCCCCCC(=O)O)C(=O)O)C(=O)N[C@@H](CC(C)C)C(=O)N[C@@H](CCC(=O)O)C(=O)N[C@@H](C)C(=O)NCC(=O)N1CCC[C@H]1C(=O)N[C@@H](CO)C(=O)N[C@@H](CO)C(=O)NCC(=O)N[C@@H](C)C(=O)N1CCC[C@H]1C(=O)N1CCC[C@H]1C(=O)N1CCC[C@H]1C(=O)N[C@@H](CO)C(N)=O)C(C)C)[C@@H](C)CC [Example 113] (H-Y[Aib]EGT[αMePhe(2-F)]ISDYSIALDKIHQ[Aib]DFVE[4Pal]K([AEEA-AEEA-γGlu-C20 diacid])LEAGPSSGAPPPS-NH2) | 0.108 | > 921
4 | CC[C@H](C)[C@H](NC(=O)[C@H](CO)NC(=O)[C@H](Cc1ccc(O)cc1)NC(=O)[C@H](CC(=O)O)NC(=O)[C@H](CO)NC(=O)[C@@H](NC(=O)[C@](C)(Cc1ccccc1F)NC(=O)[C@@H](NC(=O)CNC(=O)[C@H](CCC(=O)O)NC(=O)C(C)(C)NC(=O)[C@@H](N)Cc1ccc(O)cc1)[C@@H](C)O)[C@@H](C)CC)C(=O)N[C@@H](C)C(=O)N[C@@H](CC(C)C)C(=O)N[C@@H](CC(=O)O)C(=O)N[C@@H](CCCCN)C(=O)N[C@H](C(=O)N[C@@H](Cc1c[nH]cn1)C(=O)N[C@@H](CCC(N)=O)C(=O)NC(C)(C)C(=O)N[C@@H](CC(=O)O)C(=O)N[C@@H](Cc1ccccc1)C(=O)N[C@H](C(=O)N[C@@H](CCC(=O)O)C(=O)N[C@@H](Cc1ccncc1)C(=O)N[C@@H](CCCCNC(=O)COCCOCCNC(=O)COCCOCCNC(=O)CC[C@H](NC(=O)CCCCCCCCCCCCCCCCCCC(=O)O)C(=O)O)C(=O)N[C@@H](CC(C)C)C(=O)N[C@@H](CCC(=O)O)C(=O)N[C@@H](CCC(N)=O)C(=O)NCC(=O)N1CCC[C@H]1C(=O)N[C@@H](CO)C(=O)N[C@@H](CO)C(=O)NCC(=O)N[C@@H](C)C(=O)N1CCC[C@H]1C(=O)N1CCC[C@H]1C(=O)N1CCC[C@H]1C(=O)N[C@@H](CO)C(N)=O)C(C)C)[C@@H](C)CC [Example 114] (H-Y[Aib]EGT[αMePhe(2-F)]ISDYSIALDKIHQ[Aib]DFVE[4Pal]K([AEEA-AEEA-γGlu-C20 diacid])LEQGPSSGAPPPS-NH2) | 0.121 | > 921
5 | CC[C@H](C)[C@H](NC(=O)[C@H](CCCCN)NC(=O)[C@H](CC(=O)O)NC(=O)[C@H](CC(C)C)NC(=O)[C@](C)(CC(C)C)NC(=O)[C@@H](NC(=O)[C@H](CO)NC(=O)[C@H](Cc1ccc(O)cc1)NC(=O)[C@H](CC(=O)O)NC(=O)[C@H](CO)NC(=O)[C@@H](NC(=O)[C@H](Cc1ccccc1)NC(=O)[C@@H](NC(=O)CNC(=O)[C@H](CCC(=O)O)NC(=O)C(C)(C)NC(=O)[C@@H](N)Cc1ccc(O)cc1)[C@@H](C)O)[C@@H](C)CC)[C@@H](C)CC)C(=O)N[C@@H](CCCNC(=N)N)C(=O)N[C@@H](CCC(N)=O)C(=O)NC(C)(C)C(=O)N[C@@H](CC(=O)O)C(=O)N[C@@H](Cc1ccccc1)C(=O)N[C@H](C(=O)N[C@@H](CCC(=O)O)C(=O)N[C@@H](Cc1ccc(O)cc1)C(=O)N[C@@H](CCCCNC(=O)COCCOCCNC(=O)COCCOCCNC(=O)CC[C@H](NC(=O)CCCCCCCCCCCCCCCCCCC(=O)O)C(=O)O)C(=O)N[C@@H](CC(C)C)C(=O)N[C@@H](CCC(=O)O)C(=O)NCC(=O)NCC(=O)N1CCC[C@H]1C(=O)N[C@@H](CO)C(=O)N[C@@H](CO)C(=O)NCC(=O)N[C@@H](C)C(=O)N1CCC[C@H]1C(=O)N1CCC[C@H]1C(=O)N1CCC[C@H]1C(=O)N[C@@H](CO)C(N)=O)C(C)C [Example 115] (H-Y[Aib]EGTFISDYSI[αMeL]LDKIRQ[Aib]DFVEYK([AEEA-AEEA-γGlu-C20 diacid])LEGGPSSGAPPPS-NH2) | 0.0997 | > 912
6 | CC[C@H](C)[C@H](NC(=O)[C@H](CCCN)NC(=O)[C@H](CC(=O)O)NC(=O)[C@H](CC(C)C)NC(=O)[C@](C)(CC(C)C)NC(=O)[C@@H](NC(=O)[C@H](CO)NC(=O)[C@H](Cc1ccc(O)cc1)NC(=O)[C@H](CC(=O)O)NC(=O)[C@H](CO)NC(=O)[C@@H](NC(=O)[C@H](Cc1ccccc1)NC(=O)[C@@H](NC(=O)CNC(=O)[C@H](CCC(=O)O)NC(=O)C(C)(C)NC(=O)[C@@H](N)Cc1ccc(O)cc1)[C@@H](C)O)[C@@H](C)CC)[C@@H](C)CC)C(=O)N[C@@H](CCCNC(=N)N)C(=O)N[C@@H](CCC(N)=O)C(=O)NC(C)(C)C(=O)N[C@@H](CC(=O)O)C(=O)N[C@@H](Cc1ccccc1)C(=O)N[C@H](C(=O)N[C@@H](CCC(=O)O)C(=O)N[C@@H](Cc1ccc(O)cc1)C(=O)N[C@@H](CCCCNC(=O)COCCOCCNC(=O)COCCOCCNC(=O)CC[C@H](NC(=O)CCCCCCCCCCCCCCCCCCC(=O)O)C(=O)O)C(=O)N[C@@H](CC(C)C)C(=O)N[C@@H](CCC(=O)O)C(=O)NCC(=O)NCC(=O)N1CCC[C@H]1C(=O)N[C@@H](CO)C(=O)N[C@@H](CO)C(=O)NCC(=O)N[C@@H](C)C(=O)N1CCC[C@H]1C(=O)N1CCC[C@H]1C(=O)N1CCC[C@H]1C(=O)N[C@@H](CO)C(N)=O)C(C)C [Example 116] (H-Y[Aib]EGTFISDYSI[αMeL]LD[Orn]IRQ[Aib]DFVEYK([AEEA-AEEA-γGlu-C20 diacid])LEGGPSSGAPPPS-NH2) | 0.166 | > 912
